{"source": "paper PMC5391474", "about": "“Investigation of the Role of Protein Kinase D in Human Rhinovirus Replication” (Journal of Virology, 2017)", "experiment_in_all_cases": "biochemical", "parameters_in_all_cases": "in vitro kinase selectivity panel, protein and lipid kinases, single concentration, ATP at Km", "conditions_in_all_cases": "ATP at Km", "key": {"[1]": {"biological_target": "T1, Abl(h) (Homo sapiens, UniProt P00519)", "T1 construct": "gene ABL1", "T1 sequence (P00519 whole entry)": "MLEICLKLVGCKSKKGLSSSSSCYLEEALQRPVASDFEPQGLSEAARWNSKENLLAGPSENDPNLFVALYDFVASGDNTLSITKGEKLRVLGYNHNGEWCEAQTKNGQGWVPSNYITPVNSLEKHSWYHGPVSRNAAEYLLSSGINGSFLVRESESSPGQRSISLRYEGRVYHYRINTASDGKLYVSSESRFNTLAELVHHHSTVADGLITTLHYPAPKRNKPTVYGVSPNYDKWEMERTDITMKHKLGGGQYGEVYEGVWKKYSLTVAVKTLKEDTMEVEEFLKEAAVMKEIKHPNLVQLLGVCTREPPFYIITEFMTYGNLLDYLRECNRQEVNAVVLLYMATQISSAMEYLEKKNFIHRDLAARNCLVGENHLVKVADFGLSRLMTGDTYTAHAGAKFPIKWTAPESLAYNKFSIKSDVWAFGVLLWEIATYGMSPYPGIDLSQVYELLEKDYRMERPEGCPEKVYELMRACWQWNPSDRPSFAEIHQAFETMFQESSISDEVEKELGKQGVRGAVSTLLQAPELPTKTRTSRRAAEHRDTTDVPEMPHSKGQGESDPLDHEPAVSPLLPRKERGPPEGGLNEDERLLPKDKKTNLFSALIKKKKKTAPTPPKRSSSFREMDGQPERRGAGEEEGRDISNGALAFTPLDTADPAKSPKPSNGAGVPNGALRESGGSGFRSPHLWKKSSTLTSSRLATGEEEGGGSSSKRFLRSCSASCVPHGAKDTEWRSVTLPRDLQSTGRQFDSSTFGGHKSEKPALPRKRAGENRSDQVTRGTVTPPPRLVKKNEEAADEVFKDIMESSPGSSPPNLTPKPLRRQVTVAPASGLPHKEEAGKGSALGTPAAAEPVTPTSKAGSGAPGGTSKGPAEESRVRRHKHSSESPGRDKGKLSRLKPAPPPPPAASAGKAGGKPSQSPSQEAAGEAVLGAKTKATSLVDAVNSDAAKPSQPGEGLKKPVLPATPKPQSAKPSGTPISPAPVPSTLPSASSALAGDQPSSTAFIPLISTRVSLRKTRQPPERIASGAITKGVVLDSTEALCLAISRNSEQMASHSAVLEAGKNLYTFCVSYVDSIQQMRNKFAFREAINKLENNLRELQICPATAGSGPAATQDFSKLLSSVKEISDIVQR", "in_short": "(§1)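 Single-point screen against a protein and lipid kinase panel: inhibitor at 1 μM. ATP concentration for every kinase equivalent to its Km.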"}, "[2]": {"biological_target": "T2, CK1γ2(h) (Homo sapiens, UniProt P78368)", "T2 construct": "gene CSNK1G2", "in_short": "as §1"}, "[3]": {"biological_target": "CSK(h) (Homo sapiens, UniProt P41240)", "in_short": "as §1"}, "[4]": {"biological_target": "DAPK1(h) (Homo sapiens, UniProt P53355)", "in_short": "as §1"}, "[5]": {"biological_target": "DYRK2(h) (Homo sapiens, UniProt Q92630)", "in_short": "as §1"}, "[6]": {"biological_target": "ErbB4(h) (Homo sapiens, UniProt Q15303)", "in_short": "as §1"}, "[7]": {"biological_target": "T3, IR(h) (Homo sapiens, UniProt P06213)", "T3 construct": "gene INSR", "in_short": "as §1"}, "[8]": {"biological_target": "MELK(h) (Homo sapiens, UniProt Q14680)", "in_short": "as §1"}, "[9]": {"biological_target": "T4, PDGFRβ(h) (Homo sapiens, UniProt P09619)", "T4 construct": "gene PDGFRB", "T4 sequence (P09619 whole entry)": "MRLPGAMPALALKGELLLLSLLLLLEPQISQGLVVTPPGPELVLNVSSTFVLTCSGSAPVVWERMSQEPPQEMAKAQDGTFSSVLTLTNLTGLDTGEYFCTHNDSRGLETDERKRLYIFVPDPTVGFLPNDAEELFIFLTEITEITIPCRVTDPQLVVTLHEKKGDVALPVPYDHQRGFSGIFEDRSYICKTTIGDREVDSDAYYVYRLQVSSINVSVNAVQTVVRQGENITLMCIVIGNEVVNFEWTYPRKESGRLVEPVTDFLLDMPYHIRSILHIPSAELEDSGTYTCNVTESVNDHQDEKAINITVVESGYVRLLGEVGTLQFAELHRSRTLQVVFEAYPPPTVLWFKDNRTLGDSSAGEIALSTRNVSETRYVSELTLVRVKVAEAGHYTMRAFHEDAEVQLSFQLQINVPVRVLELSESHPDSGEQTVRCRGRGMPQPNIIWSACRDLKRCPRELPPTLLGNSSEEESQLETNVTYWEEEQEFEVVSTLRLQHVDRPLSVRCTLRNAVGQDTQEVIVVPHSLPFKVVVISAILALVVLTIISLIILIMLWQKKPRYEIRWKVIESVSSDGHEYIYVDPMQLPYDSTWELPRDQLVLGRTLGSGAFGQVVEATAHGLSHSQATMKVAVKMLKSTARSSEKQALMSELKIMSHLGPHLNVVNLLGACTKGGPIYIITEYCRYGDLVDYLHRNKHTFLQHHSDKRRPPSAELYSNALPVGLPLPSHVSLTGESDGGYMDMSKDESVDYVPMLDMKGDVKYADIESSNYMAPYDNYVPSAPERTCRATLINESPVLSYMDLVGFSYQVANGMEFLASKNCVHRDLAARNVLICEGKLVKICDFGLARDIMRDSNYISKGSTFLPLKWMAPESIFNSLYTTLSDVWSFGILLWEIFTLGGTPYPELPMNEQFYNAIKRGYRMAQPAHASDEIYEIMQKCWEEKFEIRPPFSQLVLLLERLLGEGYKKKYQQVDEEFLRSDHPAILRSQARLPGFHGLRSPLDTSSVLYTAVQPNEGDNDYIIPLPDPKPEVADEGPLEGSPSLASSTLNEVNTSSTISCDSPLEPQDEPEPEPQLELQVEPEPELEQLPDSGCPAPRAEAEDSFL", "in_short": "as §1"}, "[10]": {"biological_target": "PIK3CA (Homo sapiens, UniProt P42336)", "in_short": "as §1"}, "[11]": {"biological_target": "T5, PIK4B (Homo sapiens, UniProt Q9UBF8)", "T5 construct": "gene PI4KB", "in_short": "as §1"}, "[12]": {"biological_target": "T6, PKBα(h) (Homo sapiens, UniProt P31749)", "T6 construct": "gene AKT1", "T6 sequence (P31749 whole entry)": "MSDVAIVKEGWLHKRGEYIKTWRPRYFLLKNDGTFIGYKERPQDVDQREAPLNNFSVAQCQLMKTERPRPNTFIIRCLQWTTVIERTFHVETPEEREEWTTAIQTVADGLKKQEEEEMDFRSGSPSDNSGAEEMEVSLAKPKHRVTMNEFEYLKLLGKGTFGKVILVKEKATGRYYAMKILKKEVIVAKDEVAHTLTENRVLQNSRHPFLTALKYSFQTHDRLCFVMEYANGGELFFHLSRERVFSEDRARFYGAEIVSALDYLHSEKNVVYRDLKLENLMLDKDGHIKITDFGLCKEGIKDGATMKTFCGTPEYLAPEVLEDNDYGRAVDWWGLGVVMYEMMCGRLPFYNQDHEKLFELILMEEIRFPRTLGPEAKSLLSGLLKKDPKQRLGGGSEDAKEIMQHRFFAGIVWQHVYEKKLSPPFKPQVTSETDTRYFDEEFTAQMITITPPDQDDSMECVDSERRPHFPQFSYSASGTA", "in_short": "as §1"}, "[13]": {"biological_target": "T7, PKCε(h) (Homo sapiens, UniProt Q02156)", "T7 construct": "gene PRKCE", "in_short": "as §1"}, "[14]": {"biological_target": "T8, PKCζ(h) (Homo sapiens, UniProt Q05513)", "T8 construct": "gene PRKCZ", "in_short": "as §1"}, "[15]": {"biological_target": "T9, Pim-1(h) (Homo sapiens, UniProt P11309)", "T9 construct": "gene PIM1", "in_short": "as §1"}, "[16]": {"biological_target": "Ret(h) (Homo sapiens, UniProt P07949)", "in_short": "as §1"}, "[17]": {"biological_target": "T10, Ros(h) (Homo sapiens, UniProt P08922)", "T10 construct": "gene ROS1", "T10 sequence (P08922 whole entry)": "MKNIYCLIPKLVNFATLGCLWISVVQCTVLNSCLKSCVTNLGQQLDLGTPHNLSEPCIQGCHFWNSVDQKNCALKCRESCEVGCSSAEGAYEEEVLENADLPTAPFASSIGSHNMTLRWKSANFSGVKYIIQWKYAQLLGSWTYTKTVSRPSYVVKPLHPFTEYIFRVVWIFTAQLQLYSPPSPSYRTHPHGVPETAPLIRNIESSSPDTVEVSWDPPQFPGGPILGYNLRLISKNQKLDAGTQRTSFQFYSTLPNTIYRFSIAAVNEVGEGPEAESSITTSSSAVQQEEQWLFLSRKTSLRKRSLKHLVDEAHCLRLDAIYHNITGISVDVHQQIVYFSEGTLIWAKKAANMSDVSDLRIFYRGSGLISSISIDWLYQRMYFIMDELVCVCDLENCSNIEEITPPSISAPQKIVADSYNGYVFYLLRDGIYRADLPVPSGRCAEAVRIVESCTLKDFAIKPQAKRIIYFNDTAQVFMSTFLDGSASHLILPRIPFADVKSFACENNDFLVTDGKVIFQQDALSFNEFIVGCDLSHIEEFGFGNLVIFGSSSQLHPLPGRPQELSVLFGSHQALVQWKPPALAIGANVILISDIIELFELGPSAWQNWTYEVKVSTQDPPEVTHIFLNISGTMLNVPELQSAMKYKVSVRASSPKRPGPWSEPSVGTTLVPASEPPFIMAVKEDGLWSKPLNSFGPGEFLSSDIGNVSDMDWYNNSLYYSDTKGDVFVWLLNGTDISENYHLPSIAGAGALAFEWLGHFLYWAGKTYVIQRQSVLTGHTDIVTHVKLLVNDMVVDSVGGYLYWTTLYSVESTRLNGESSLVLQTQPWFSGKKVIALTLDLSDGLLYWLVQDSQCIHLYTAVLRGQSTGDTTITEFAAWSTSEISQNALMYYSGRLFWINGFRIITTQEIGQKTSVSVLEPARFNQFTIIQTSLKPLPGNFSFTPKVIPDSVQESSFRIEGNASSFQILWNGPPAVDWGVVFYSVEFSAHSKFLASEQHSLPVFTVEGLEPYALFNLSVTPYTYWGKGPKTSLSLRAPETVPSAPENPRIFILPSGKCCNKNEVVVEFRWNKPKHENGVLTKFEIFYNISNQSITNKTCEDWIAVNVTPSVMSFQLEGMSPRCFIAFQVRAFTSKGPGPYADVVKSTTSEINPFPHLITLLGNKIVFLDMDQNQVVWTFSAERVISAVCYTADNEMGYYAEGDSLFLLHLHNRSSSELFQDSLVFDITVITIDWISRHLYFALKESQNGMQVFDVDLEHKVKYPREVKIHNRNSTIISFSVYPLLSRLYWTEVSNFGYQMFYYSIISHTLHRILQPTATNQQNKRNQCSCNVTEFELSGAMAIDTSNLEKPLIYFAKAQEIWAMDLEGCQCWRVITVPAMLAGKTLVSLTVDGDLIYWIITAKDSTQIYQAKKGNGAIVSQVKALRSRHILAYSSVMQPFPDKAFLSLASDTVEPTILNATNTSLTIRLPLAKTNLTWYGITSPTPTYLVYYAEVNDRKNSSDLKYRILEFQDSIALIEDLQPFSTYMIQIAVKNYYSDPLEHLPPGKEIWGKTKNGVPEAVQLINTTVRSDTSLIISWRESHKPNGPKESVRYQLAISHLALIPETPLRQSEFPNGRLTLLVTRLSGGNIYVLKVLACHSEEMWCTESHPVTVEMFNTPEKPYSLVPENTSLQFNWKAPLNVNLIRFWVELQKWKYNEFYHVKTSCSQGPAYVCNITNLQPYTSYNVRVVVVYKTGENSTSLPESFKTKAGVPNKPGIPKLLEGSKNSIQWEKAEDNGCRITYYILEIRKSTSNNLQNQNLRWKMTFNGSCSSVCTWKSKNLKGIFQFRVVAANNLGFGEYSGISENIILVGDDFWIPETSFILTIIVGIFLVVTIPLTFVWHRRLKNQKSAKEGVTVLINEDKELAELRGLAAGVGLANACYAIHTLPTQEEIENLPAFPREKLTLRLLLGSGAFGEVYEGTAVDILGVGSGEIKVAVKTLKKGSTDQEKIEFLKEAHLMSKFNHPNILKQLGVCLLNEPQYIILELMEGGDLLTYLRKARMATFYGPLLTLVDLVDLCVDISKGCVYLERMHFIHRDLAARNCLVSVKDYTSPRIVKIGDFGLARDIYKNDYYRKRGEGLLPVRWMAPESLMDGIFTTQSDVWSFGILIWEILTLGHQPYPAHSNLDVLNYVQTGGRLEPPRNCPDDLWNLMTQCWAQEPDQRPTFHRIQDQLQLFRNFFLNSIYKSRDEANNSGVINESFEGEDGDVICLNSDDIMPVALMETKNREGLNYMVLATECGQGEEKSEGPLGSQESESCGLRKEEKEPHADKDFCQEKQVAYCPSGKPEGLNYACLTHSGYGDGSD", "in_short": "as §1"}, "[18]": {"biological_target": "SPHK1 (Homo sapiens, UniProt Q9NYA1)", "in_short": "as §1"}}}
{"smiles": "CC[C@@H](N)CNc1ccnc(-c2cc(-c3cnn(C)c3)ccc2O)n1", "note": "[CRT0066101]", "values": [{"measurement": "inhibition at 1 µM", "setting": "[1]", "result": -13, "unit": "%"}, {"measurement": "inhibition at 1 µM", "setting": "[2]", "result": 0, "unit": "%"}, {"measurement": "inhibition at 1 µM", "setting": "[3]", "result": 7, "unit": "%"}, {"measurement": "inhibition at 1 µM", "setting": "[4]", "result": -8, "unit": "%"}, {"measurement": "inhibition at 1 µM", "setting": "[5]", "result": 94, "unit": "%"}, {"measurement": "inhibition at 1 µM", "setting": "[6]", "result": 3, "unit": "%"}, {"measurement": "inhibition at 1 µM", "setting": "[7]", "result": -22, "unit": "%"}, {"measurement": "inhibition at 1 µM", "setting": "[8]", "result": 55, "unit": "%"}, {"measurement": "inhibition at 1 µM", "setting": "[9]", "result": -1, "unit": "%"}, {"measurement": "inhibition at 1 µM", "setting": "[10]", "result": 1, "unit": "%"}, {"measurement": "inhibition at 1 µM", "setting": "[11]", "result": 33, "unit": "%"}, {"measurement": "inhibition at 1 µM", "setting": "[12]", "result": -6, "unit": "%"}, {"measurement": "inhibition at 1 µM", "setting": "[13]", "result": 12, "unit": "%"}, {"measurement": "inhibition at 1 µM", "setting": "[14]", "result": -8, "unit": "%"}, {"measurement": "inhibition at 1 µM", "setting": "[15]", "result": 98, "unit": "%"}, {"measurement": "inhibition at 1 µM", "setting": "[16]", "result": 0, "unit": "%"}, {"measurement": "inhibition at 1 µM", "setting": "[17]", "result": -13, "unit": "%"}, {"measurement": "inhibition at 1 µM", "setting": "[18]", "result": 19, "unit": "%"}]}
